# According to PMC6120666 (The EMBO Journal, 2018):
# What was measured:
# [1] = biological target: T1, GST-BIR2-XIAP (Homo sapiens, UniProt P98170); assay: SPOT peptide assay; format: binding; conditions: GST-tagged WT BIR2
# T1 construct: XIAP BIR2 domain (aa 124-242) into pGTVL2 vector in frame with N-terminal HIS and GST tags; made in house; host or cells: E. coli (BL21)
# Procedure: (§1) Cellulose‐bound peptide arrays were prepared employing standard Fmoc solid‐phase peptide synthesis using a MultiPep‐RSi‐Spotter (INTAVIS, Köln, Germany) as previously described (Picaud & Filippakopoulos, 2015). The assay was performed using recombinant 6xHIS‐GST‐BIR2 domain of XIAP protein, and bound protein was detected using anti‐His antibody HRP‐conjugated.
# (§2) For coimmunoprecipitation of HA-XIAP with RIPK2, transfected and treated cells were lysed in TBS buffer containing 0.5% NP-40, cOmplete and PhosSTOP inhibitors (Roche) and the lysate was cleared by centrifugation. The lysates were incubated with anti-HA-agarose overnight, washed 3x with lysis buffer and analyzed by immunoblotting. […]
# (§3) Cleared lysates were pretreated with kinase inhibitors or DMSO and incubated with GST-XIAP-BIR2 bound to Glutathione Sepharose at 4 °C overnight. Bound material was washed 3x with lysis buffer or PBS, eluted with 15 mM Glutathione in PBS and analyzed by immunoblotting. […] The bound material was eluted and analyzed as described above.
# (§4) Ubiquitin conjugates were purified from treated cells using GST-1xUBAubq ubiquitin affinity reagent and analyzed by immunoblotting as described (Fiil et al., 2013). […]
# (§5) Proteins bound to peptides were detected using anti-His antibody HPR conjugated (diluted 1:15000) and the Pierce® ECL Western blotting Substrate (#32106, Thermo Fisher Scientific). […]
# [2] = biological target: T2, GST-BIR2-XIAP (Homo sapiens, UniProt P98170, D214S); assay: SPOT peptide assay; format: binding; conditions: D214S mutant BIR2
# T2 construct: XIAP BIR2 domain (aa 124-242) into pGTVL2 vector in frame with N-terminal HIS and GST tags; made in house; host or cells: E. coli (BL21)
# Procedure: as §1, §2, §3, §4, §5
# [3] = system: U2OS/NOD2 cells; assay: Intracellular flow cytometry of CXCL8 after L18-MDP; format: cell-based, human; conditions: U2OS/NOD2 RIPK2 KO cells reconstituted with T95W gatekeeper mutant; L18-MDP 200 ng/ml, 4 h
# Procedure: Purified material and lysates were analyzed by immunoblotting. […] Numbering below schematic refers to amino acid residues in human RIPK2 and indicate domain boundaries. […] Data information: Data in (A, B, D, H) represent the mean ± SEM of 2–4 independent experiments, each performed in duplicate. […] Two‐way ANOVA was used to determine statistical significance. See also Fig EV1.Source data are available online for this figure.
# Dark gray represents areas occupied by RIPK2; white areas indicate empty spaces in CSLP binding pocket. […] Dotted black box indicates region shown for models with CSLP37 and CSLP43. • Molecular docking model of RIPK2 kinase domain in complex with CSLP43 (green) based on RIPK2/CSLP18 structure from (D). […] Two‐way ANOVA was used to determine statistical significance. See also Fig EV2.
# (§6) GST-BIR2-XIAP as indicated. Intensity quantification of SPOTs was performed using ImageJ software
# (§7) Dual luciferase reporter assay
# (§8) Intracellular flow cytometry of CXCL8
# (§9) for cell death) or vehicle for 24h. Viability was determined using the CellTiter-Glo® luminescent cell
# (§10) together with Transfection Carrier DNA (Promega).
# (§11) After addition of Nano-Glo
# [4] = biological target: T3, XIAP BIR2 - RIPK2 interaction (Homo sapiens, UniProt O43353); assay: GST-BIR2-XIAP pulldown of RIPK2; format: binding; conditions: U2OS/NOD2 lysates; inhibitors at 100-fold IC50 of RIPK2 kinase activity
# T3 construct: U2OS/NOD2 cells were lysed in TBS lysis buffer; endogenous in cells; host or cells: U2OS/NOD2 cell lysate (RIPK2); E. coli BL21 (GST-BIR2-XIAP)
# Procedure: (§12) For co‐immunoprecipitation of HA‐XIAP with RIPK2, transfected and treated cells were lysed in TBS buffer containing 0.5% NP‐40, cOmplete and PhosSTOP inhibitors (Roche) and the lysate was cleared by centrifugation. The lysates were incubated with anti‐HA‐agarose overnight, washed 3× with lysis buffer, and analyzed by immunoblotting. For GST pulldown experiments, U2OS/NOD2 cells were lysed in TBS lysis buffer containing 0.5% NP‐40, cOmplete and PhosSTOP inhibitors (Roche). Cleared lysates were pretreated with kinase inhibitors or DMSO and incubated with GST‐XIAP‐BIR2 bound to Glutathione Sepharose at 4°C overnight. Bound material was washed 3× with lysis buffer or PBS, eluted with 15 mM Glutathione in PBS, and analyzed by immunoblotting. […] The bound material was eluted and analyzed as described above.
# For coimmunoprecipitation of HA-XIAP with RIPK2, transfected and treated cells were lysed in TBS buffer containing 0.5% NP-40, cOmplete and PhosSTOP inhibitors (Roche) and the lysate was cleared by centrifugation. The lysates were incubated with anti-HA-agarose overnight, washed 3x with lysis buffer and analyzed by immunoblotting. For GST pull-down experiments, U2OS/NOD2 were lysed in TBS lysis buffer containing 0.5% NP-40, cOmplete and PhosSTOP inhibitors (Roche).
# Cleared lysates were pretreated with kinase inhibitors or DMSO and incubated with GST-XIAP-BIR2 bound to Glutathione Sepharose at 4 °C overnight. Bound material was washed 3x with lysis buffer or PBS, eluted with 15 mM Glutathione in PBS and analyzed by immunoblotting. In pull-down […]
# inhibitors or DMSO control in PBS were added together with RIPK2 kinase domain to GST-XIAP-BIR2 bound to Glutathione Sepharose. The bound material was eluted and analyzed as described above. […]
# [5] = system: RIPK2 ubiquitination in U2OS/NOD2 and THP-1 cells; assay: Purification of Ub-conjugates (TUBE pulldown), RIPK2 ubiquitination; format: cell-based, human
# Procedure: as §12, with “above. […]” for “above.”
# PBS, eluted with 15 mM Glutathione in PBS and analyzed by immunoblotting. […]
# [6] = biological target: T4, NanoLuc-RIPK2 WT and T95W (Homo sapiens, UniProt O43353, T95W); assay: nanoBRET assay in HEK293 cells with SGC-590001 probe; format: binding; conditions: up to more than 100 nM
# T4 construct: expressed in transfected cells; host or cells: HEK293 cells
# Procedure: Purified material and lysates were analyzed by immunoblotting. […] Two‐way ANOVA was used to determine statistical significance.
# as §6, §7, §8, §9, §10, §11
# [7] = biological target: T5, XIAP-RIPK2 interaction in HEK293FT cells (Homo sapiens, UniProt O43353); assay: Co-immunoprecipitation of HA-XIAP with endogenous RIPK2; format: cell-based; conditions: 200 nM
# T5 construct: endogenous RIPK2 from HEK293FT cells; endogenous in cells; host or cells: HEK293FT cells (RIPK2 endogenous; 3xHA-XIAP-F495A transfected)
# Procedure: Purified material and lysates were analyzed by immunoblotting. • Pulldown of RIPK2 from U2OS/NOD2 cell lysates with recombinant GST‐BIR2‐XIAP in the presence of CSLP inhibitors. […] Purified material and lysates were analyzed by immunoblotting. • Pulldown of recombinant RIPK2 kinase domain (dephosphorylated) with recombinant GST‐BIR2‐XIAP in the presence of CSLP inhibitors as indicated. Inhibitors were used at the same concentrations as in (C). Purified material and lysates were analyzed by immunoblotting. • Purification of Ub‐conjugates from THP‐1 cells after treatment with L18‐MDP (200 ng/ml, 1 h) and CSLP inhibitors as indicated. Purified material and lysates were analyzed by immunoblotting. […]
# For co‐immunoprecipitation of HA‐XIAP with RIPK2, transfected and treated cells were lysed in TBS buffer containing 0.5% NP‐40, cOmplete and PhosSTOP inhibitors (Roche) and the lysate was cleared by centrifugation. The lysates were incubated with anti‐HA‐agarose overnight, washed 3× with lysis buffer, and analyzed by immunoblotting. […] Bound material was washed 3× with lysis buffer or PBS, eluted with 15 mM Glutathione in PBS, and analyzed by immunoblotting. […] The bound material was eluted and analyzed as described above. […]
# as §4
Compound,binding of WT XIAP BIR2 domain to peptide [1],binding of D214S versus WT BIR2 domain to peptide [2],inhibition of NOD2 signaling (CXCL8) in cells expressing RIPK2 T95W [3],pulldown of RIPK2 by GST-BIR2-XIAP from cell lysates [4],ubiquitination of kinase-dead RIPK2 variants after NOD2 stimulation ([5]; U2OS/NOD2 RIPK2 KO cells reconstituted with K47R or D146N),"RIPK2 ubiquitination after L18-MDP ([5]; U2OS/NOD2 or THP-1 cells, L18-MDP 200 ng/ml, 1 h)",binding to RIPK2 T95W in cells [6],co-immunoprecipitation of endogenous RIPK2 with HA-XIAP [7]
"A-S-G-T-V-S-S-A-R-H-A-D-W-R-V (ASGTVSSARHADWRV) [A13, RIPK2 15-mer SPOT peptide, residues 28-42]",binds predominantly,reduced,,,,,,
"Cc1ccc(C(=O)Nc2ccc(CN3CCN(C)CC3)c(C(F)(F)F)c2)cc1C#Cc1cnc2cccnn12 [ponatinib, reference compound]",,,largely abolished the inhibitory effect,interfered,prevented ubiquitination,antagonized,ablated the binding,prevented
